Test results as given in PubChem BioAssay AID1259407 (Chemical Carcinogenesis Research Information System (CCRIS), 2018).
Activity calls are given as the source filed them. No rule for the calls is given here.

Test system: CCRIS mutagenicity, Ames/micronucleus/aberration tests
Assay: CCRIS mutagenicity studies

## CN(C)c1ccc(C(=O)c2ccc(N(C)C)cc2)cc1
Test System: AMES SALMONELLA TYPHIMURIUM, Strain/Indicator: TA98, Metabolic Activation: MOUSE, LIVER, S-9, AROCLOR 1254, Method: STANDARD PLATE
  mutagenic call: inactive; negative
Test System: AMES SALMONELLA TYPHIMURIUM, Strain/Indicator: TA98, Metabolic Activation: MOUSE, LIVER, S-9, Method: STANDARD PLATE
  mutagenic call: inactive; negative
Test System: AMES SALMONELLA TYPHIMURIUM, Strain/Indicator: TA98, Metabolic Activation: NONE, Method: STANDARD PLATE
  mutagenic call: inactive; negative
Test System: AMES SALMONELLA TYPHIMURIUM, Strain/Indicator: TA98, Metabolic Activation: RAT, LIVER, S-9, Method: STANDARD PLATE
  mutagenic call: inactive; negative
Test System: AMES SALMONELLA TYPHIMURIUM, Strain/Indicator: TA100, Metabolic Activation: HAMSTER, LIVER, S-9, AROCLOR 1254, Method: STANDARD PLATE
  mutagenic call: inactive; negative
Test System: AMES SALMONELLA TYPHIMURIUM, Strain/Indicator: TA100, Metabolic Activation: HAMSTER, LIVER, S-9, Method: STANDARD PLATE
  mutagenic call: inactive; negative
Test System: AMES SALMONELLA TYPHIMURIUM, Strain/Indicator: TA100, Metabolic Activation: MOUSE, LIVER, S-9, Method: STANDARD PLATE
  mutagenic call: inactive; negative
Test System: AMES SALMONELLA TYPHIMURIUM, Strain/Indicator: TA100, Metabolic Activation: NONE, Method: STANDARD PLATE
  mutagenic call: inactive; negative
Test System: AMES SALMONELLA TYPHIMURIUM, Strain/Indicator: TA100, Metabolic Activation: RAT, LIVER, S-9, AROCLOR 1254, Method: STANDARD PLATE
  mutagenic call: inactive; negative
Test System: AMES SALMONELLA TYPHIMURIUM, Strain/Indicator: TA100, Metabolic Activation: RAT, LIVER, S-9, Method: STANDARD PLATE
  mutagenic call: inactive; negative
Test System: AMES SALMONELLA TYPHIMURIUM, Strain/Indicator: TA1535, Metabolic Activation: HAMSTER, LIVER, S-9, AROCLOR 1254, Method: STANDARD PLATE
  mutagenic call: inactive; negative
Test System: AMES SALMONELLA TYPHIMURIUM, Strain/Indicator: TA1535, Metabolic Activation: HAMSTER, LIVER, S-9, Method: STANDARD PLATE
  mutagenic call: inactive; negative
Test System: AMES SALMONELLA TYPHIMURIUM, Strain/Indicator: TA1535, Metabolic Activation: MOUSE, LIVER, S-9, AROCLOR 1254, Method: STANDARD PLATE
  mutagenic call: inactive; negative
Test System: AMES SALMONELLA TYPHIMURIUM, Strain/Indicator: TA1535, Metabolic Activation: MOUSE, LIVER, S-9, Method: STANDARD PLATE
  mutagenic call: inactive; negative
Test System: AMES SALMONELLA TYPHIMURIUM, Strain/Indicator: TA1535, Metabolic Activation: NONE, Method: STANDARD PLATE
  mutagenic call: inactive; negative
Test System: AMES SALMONELLA TYPHIMURIUM, Strain/Indicator: TA1535, Metabolic Activation: RAT, LIVER, S-9, AROCLOR 1254, Method: STANDARD PLATE
  mutagenic call: inactive; negative
Test System: AMES SALMONELLA TYPHIMURIUM, Strain/Indicator: TA1535, Metabolic Activation: RAT, LIVER, S-9, Method: STANDARD PLATE
  mutagenic call: inactive; negative
Test System: AMES SALMONELLA TYPHIMURIUM, Strain/Indicator: TA1537, Metabolic Activation: HAMSTER, LIVER, S-9, AROCLOR 1254, Method: STANDARD PLATE
  mutagenic call: inactive; negative
Test System: AMES SALMONELLA TYPHIMURIUM, Strain/Indicator: TA1537, Metabolic Activation: MOUSE, LIVER, S-9, AROCLOR 1254, Method: STANDARD PLATE
  mutagenic call: inactive; negative
Test System: AMES SALMONELLA TYPHIMURIUM, Strain/Indicator: TA1537, Metabolic Activation: MOUSE, LIVER, S-9, Method: STANDARD PLATE
  mutagenic call: inactive; negative
Test System: AMES SALMONELLA TYPHIMURIUM, Strain/Indicator: TA1537, Metabolic Activation: NONE, Method: STANDARD PLATE
  mutagenic call: inactive; negative
Test System: AMES SALMONELLA TYPHIMURIUM, Strain/Indicator: TA1537, Metabolic Activation: RAT, LIVER, S-9, AROCLOR 1254, Method: STANDARD PLATE
  mutagenic call: inactive; negative
Test System: AMES SALMONELLA TYPHIMURIUM, Strain/Indicator: TA1537, Metabolic Activation: RAT, LIVER, S-9, Method: STANDARD PLATE
  mutagenic call: inactive; negative
Test System: AMES SALMONELLA TYPHIMURIUM, Strain/Indicator: TA1538, Metabolic Activation: MOUSE, LIVER, S-9, Method: STANDARD PLATE
  mutagenic call: inactive; negative
Test System: AMES SALMONELLA TYPHIMURIUM, Strain/Indicator: TA1538, Metabolic Activation: NONE, Method: STANDARD PLATE
  mutagenic call: inactive; negative
Test System: AMES SALMONELLA TYPHIMURIUM, Strain/Indicator: TA1538, Metabolic Activation: RAT, LIVER, S-9, Method: STANDARD PLATE
  mutagenic call: inactive; negative
Test System: E. COLI, Strain/Indicator: WP2 UVRA, Metabolic Activation: HAMSTER, LIVER, S-9, AROCLOR 1254, Method: STANDARD PLATE
  mutagenic call: inactive; negative
Test System: E. COLI, Strain/Indicator: WP2 UVRA, Metabolic Activation: HAMSTER, LIVER, S-9, Method: STANDARD PLATE
  mutagenic call: inactive; negative
Test System: E. COLI, Strain/Indicator: WP2 UVRA, Metabolic Activation: MOUSE, LIVER, S-9, AROCLOR 1254, Method: STANDARD PLATE
  mutagenic call: inactive; negative
Test System: E. COLI, Strain/Indicator: WP2 UVRA, Metabolic Activation: MOUSE, LIVER, S-9, Method: STANDARD PLATE
  mutagenic call: inactive; negative
Test System: E. COLI, Strain/Indicator: WP2 UVRA, Metabolic Activation: NONE, Method: STANDARD PLATE
  mutagenic call: inactive; negative
Test System: E. COLI, Strain/Indicator: WP2 UVRA, Metabolic Activation: RAT, LIVER, S-9, AROCLOR 1254, Method: STANDARD PLATE
  mutagenic call: inactive; negative
Test System: E. COLI, Strain/Indicator: WP2 UVRA, Metabolic Activation: RAT, LIVER, S-9, Method: STANDARD PLATE
  mutagenic call: inactive; negative

## C[C@H]1C[C@@]23CCC4C[C@](C)(C(=O)O)CC[C@@]4(C)[C@@H]2CC[C@]1(O)C3 (stereo not given in full)
Test System: AMES SALMONELLA TYPHIMURIUM, Strain/Indicator: TM677, Metabolic Activation: RAT, LIVER, S-9, AROCLOR 1254, Method: PREINCUBATION
  mutagenic call: inactive; negative

## CC(C)(N=O)[N+](=O)[O-]
Test System: AMES SALMONELLA TYPHIMURIUM, Strain/Indicator: TA98, Metabolic Activation: NONE, Method: PREINCUBATION
  mutagenic call: active; positive
Test System: AMES SALMONELLA TYPHIMURIUM, Strain/Indicator: TA98, Metabolic Activation: RAT, LIVER, S-9, AROCLOR, Method: PREINCUBATION
  mutagenic call: inactive; negative
Test System: AMES SALMONELLA TYPHIMURIUM, Strain/Indicator: TA100, Metabolic Activation: NONE, Method: PREINCUBATION
  mutagenic call: inactive; negative
Test System: AMES SALMONELLA TYPHIMURIUM, Strain/Indicator: TA100, Metabolic Activation: RAT, LIVER, S-9, AROCLOR, Method: PREINCUBATION
  mutagenic call: inactive; negative
Test System: AMES SALMONELLA TYPHIMURIUM, Strain/Indicator: TA102, Metabolic Activation: NONE, Method: PREINCUBATION
  mutagenic call: inactive; negative
Test System: AMES SALMONELLA TYPHIMURIUM, Strain/Indicator: TA102, Metabolic Activation: RAT, LIVER, S-9, AROCLOR, Method: PREINCUBATION
  mutagenic call: inactive; negative
